From patent US10150728B2, “Alkylene derivatives” (Shionogi & Co., Ltd., priority 2013, dated 2018)

biological target: recombinant human ACC2 (Homo sapiens (Human), UniProt O00763); experiment: Measurement of inhibitory activity on human ACC2 (MALDI-TOF MS, acetyl CoA to malonyl CoA conversion); format: biochemical; conditions: Table 154
Outline: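 His-tagged human ACC2 (residues 27–2458) from baculovirus-infected Sf-9 cells was preincubated 1 h in pH 7.4 HEPES-KOH buffer with MgCl2, 6-10 mM potassium citrate, glutathione and BSA. Substrate solution held 1 mM ATP, 0.8 mM acetyl CoA and 25-50 mM bicarbonate. After 1–3 h at room temperature, malonyl CoA/(malonyl+acetyl CoA) was read by negative-mode MALDI-TOF MS; citrate, bicarbonate and time varied by enzyme lot.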

recombinant human ACC2, sequence (O00763 27-2458): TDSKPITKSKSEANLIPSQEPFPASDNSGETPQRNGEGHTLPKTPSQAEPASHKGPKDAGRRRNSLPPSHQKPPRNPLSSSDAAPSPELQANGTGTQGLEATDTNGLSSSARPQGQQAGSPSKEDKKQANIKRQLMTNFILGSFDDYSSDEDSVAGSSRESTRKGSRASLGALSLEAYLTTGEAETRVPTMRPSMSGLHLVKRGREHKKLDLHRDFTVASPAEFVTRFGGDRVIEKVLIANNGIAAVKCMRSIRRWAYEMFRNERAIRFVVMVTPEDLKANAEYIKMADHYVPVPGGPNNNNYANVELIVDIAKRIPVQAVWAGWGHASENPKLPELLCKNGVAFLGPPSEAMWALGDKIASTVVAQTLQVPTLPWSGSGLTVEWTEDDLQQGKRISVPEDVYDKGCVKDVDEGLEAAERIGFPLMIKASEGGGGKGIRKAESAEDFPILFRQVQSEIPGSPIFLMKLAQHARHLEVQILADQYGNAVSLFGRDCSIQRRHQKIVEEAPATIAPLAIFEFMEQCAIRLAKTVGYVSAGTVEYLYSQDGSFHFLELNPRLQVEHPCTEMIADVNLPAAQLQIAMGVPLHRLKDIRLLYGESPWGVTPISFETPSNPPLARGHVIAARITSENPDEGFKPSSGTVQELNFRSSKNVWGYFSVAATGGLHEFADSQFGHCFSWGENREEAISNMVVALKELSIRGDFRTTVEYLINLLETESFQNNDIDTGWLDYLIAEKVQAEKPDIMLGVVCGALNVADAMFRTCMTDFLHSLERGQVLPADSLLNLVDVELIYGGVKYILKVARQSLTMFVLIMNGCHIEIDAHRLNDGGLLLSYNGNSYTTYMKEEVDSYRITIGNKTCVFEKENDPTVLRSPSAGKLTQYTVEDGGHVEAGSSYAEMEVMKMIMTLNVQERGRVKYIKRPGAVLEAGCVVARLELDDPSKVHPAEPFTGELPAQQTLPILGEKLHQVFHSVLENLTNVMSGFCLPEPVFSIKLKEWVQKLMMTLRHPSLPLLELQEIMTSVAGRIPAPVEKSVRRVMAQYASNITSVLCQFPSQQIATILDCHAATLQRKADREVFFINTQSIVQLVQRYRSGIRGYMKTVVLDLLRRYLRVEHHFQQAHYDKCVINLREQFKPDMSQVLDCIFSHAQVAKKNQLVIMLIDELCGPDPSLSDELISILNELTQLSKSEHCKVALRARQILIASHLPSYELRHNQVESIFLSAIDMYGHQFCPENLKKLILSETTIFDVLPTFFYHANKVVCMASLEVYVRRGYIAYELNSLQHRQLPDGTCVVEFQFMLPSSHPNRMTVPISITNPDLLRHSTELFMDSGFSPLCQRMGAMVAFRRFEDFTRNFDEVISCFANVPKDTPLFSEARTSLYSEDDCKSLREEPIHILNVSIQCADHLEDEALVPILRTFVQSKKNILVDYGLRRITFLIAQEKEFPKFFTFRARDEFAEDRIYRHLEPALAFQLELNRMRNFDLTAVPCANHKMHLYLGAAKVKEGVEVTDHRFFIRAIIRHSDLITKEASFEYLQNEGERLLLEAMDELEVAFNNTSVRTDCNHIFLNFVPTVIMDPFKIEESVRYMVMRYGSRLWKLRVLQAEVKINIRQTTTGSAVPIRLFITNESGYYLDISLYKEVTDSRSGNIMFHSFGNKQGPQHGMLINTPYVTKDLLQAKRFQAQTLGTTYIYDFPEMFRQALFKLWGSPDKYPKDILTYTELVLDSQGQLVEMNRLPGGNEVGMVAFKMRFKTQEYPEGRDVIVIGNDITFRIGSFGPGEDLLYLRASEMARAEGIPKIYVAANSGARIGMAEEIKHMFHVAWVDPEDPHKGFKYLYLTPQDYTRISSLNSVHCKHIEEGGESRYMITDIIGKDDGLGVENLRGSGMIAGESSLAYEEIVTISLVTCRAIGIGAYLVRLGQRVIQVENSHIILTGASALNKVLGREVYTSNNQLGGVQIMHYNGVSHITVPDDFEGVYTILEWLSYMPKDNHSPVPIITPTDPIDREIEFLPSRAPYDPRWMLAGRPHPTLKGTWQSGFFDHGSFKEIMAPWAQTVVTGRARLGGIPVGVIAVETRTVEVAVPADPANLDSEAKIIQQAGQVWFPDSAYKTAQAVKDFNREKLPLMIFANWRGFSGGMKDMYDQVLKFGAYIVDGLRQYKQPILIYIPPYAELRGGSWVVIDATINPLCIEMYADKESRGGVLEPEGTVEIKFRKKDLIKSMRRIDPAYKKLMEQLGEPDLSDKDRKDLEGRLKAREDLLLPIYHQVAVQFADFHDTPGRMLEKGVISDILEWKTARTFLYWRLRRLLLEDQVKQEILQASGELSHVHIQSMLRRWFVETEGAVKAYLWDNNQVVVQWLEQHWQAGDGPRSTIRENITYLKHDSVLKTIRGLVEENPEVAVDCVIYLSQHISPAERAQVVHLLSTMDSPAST

IC50 [µM]	SMILES
0.089	CCOc1nc2cc(Cl)c(Oc3cnc(OC[C@H](C)NC(C)=O)cn3)cc2s1 [Compound I-065]
0.062	CCOc1nc2ccc(OC[C@H]3C[C@H](OC[C@H](C)NC(C)=O)C3)c(Cl)c2s1 [Compound I-089]
0.148	CC(=O)N[C@@H](C)CO[C@H]1C[C@H](COc2ccc3nc(C(C)(C)O)sc3c2F)C1 [Compound I-099]
0.052	CC(=O)N[C@@H](C)COc1cnc(Oc2c(F)cc3nc(C(C)C)sc3c2F)cn1 [Compound I-032]
0.027	CCOc1nc2cc(Cl)c(OC[C@H]3C[C@H](OC[C@H](C)NC(C)=O)C3)cc2s1 [Compound I-100]
1.06	CCCc1ccc(Oc2ccc(C(=O)C[C@H](C)NC(C)=O)nc2)c(Cl)c1 [Compound I-009]
0.049	CC(=O)N[C@@H](C)COc1cnc(Oc2ccc3nc(C4CC4)sc3c2F)cn1 [Compound I-034]
0.102	CC(=O)N[C@@H](C)COc1cnc(Oc2ccc3nc(C4(C)CC4)sc3c2Cl)cn1 [Compound I-035]
0.057	CC(=O)N[C@@H](C)[C@H](C)Oc1cnc(Oc2ccc3nc(C(C)(F)F)sc3c2F)cn1 [Compound I-056]
1.29	CC(=O)N[C@@H](C)COc1cnc(Oc2ccc3c(c2Cl)OCCN(CC(F)(F)F)C3=O)cn1 [Compound I-080]

same assay, conditions: Tables 155-159

IC50 [µM]	SMILES
0.017	CC(=O)N[C@@H](C)CO[C@H]1C[C@H](COc2ncnc(OCC3CCCCO3)c2Cl)C1 (stereo partly shown) [Compound I-463]
0.015	CC(=O)N[C@@H](C)CO[C@H]1OC[C@@H](Oc2nc3c(F)cc(OCC(F)F)c(F)c3n2C)C[C@@H]1C [Compound I-702]
0.028	CC(=O)N[C@@H](C)CO[C@H]1CC[C@H](Oc2ncc(-c3ncc(C4CC4)cn3)cc2F)CC1 [Compound I-536]
0.368	CC(=O)N[C@@H](C)CO[C@H]1C[C@H](COc2ncnc(NC(=O)C3CCCCC3)c2Cl)C1 [Compound I-468]
0.004	CC(=O)N[C@@H](C)CO[C@H]1C[C@H](COc2ncnc(OCc3cc(Cl)ccn3)c2Cl)C1 [Compound I-385]
0.051	CC(=O)N[C@@H](C)CO[C@H]1C[C@H](COc2ncnc3c2ccn3CCC2CC2)C1 [Compound I-444]
0.07	CCOc1nc2ccc(O[C@H]3CC[C@H](OC[C@H](C)NC(C)=O)CC3)nc2n1CC [Compound I-493]
0.124	CC(=O)N[C@@H](C)CO[C@H]1CC[C@H](Oc2ncc3cc(OCC4CC4)ccc3n2)CC1 [Compound I-548]
0.01	CC(=O)N[C@@H](C)CO[C@H]1C[C@H](COc2ccc3nc(OCC(F)F)sc3n2)C1 [Compound I-169]
0.101	CCOc1cc2c(cn1)nc(O[C@H]1CC[C@H](OC[C@H](C)NC(C)=O)CC1)n2C [Compound I-563]
0.225	CC(=O)N[C@@H](C)CO[C@H]1CC[C@H](Oc2cc(C)c3nc(OCC4CC4)n(C)c3n2)CC1 [Compound I-509]
0.059	CC(=O)N[C@@H](C)CO[C@H]1C[C@H](COc2nccc(-c3ncc(C(F)(F)F)cn3)c2C)C1 [Compound I-380]
0.006	CCOc1nc2cnc(O[C@H]3CC[C@H](OC[C@H](C)NC(C)=O)CC3)c(F)c2s1 [Compound I-210]
0.009	CC(=O)N[C@@H](C)CO[C@H]1CC[C@H](Oc2nc3c(C)nc(OC4CC4)c(Cl)c3n2C)CC1 [Compound I-726]
0.035	CC(=O)N[C@@H](C)CO[C@H]1C[C@H](Oc2nccc3c(OCC4CC4)nccc23)C1 [Compound I-442]
0.01	CC(=O)N[C@@H](C)CO[C@H]1CC[C@H](Oc2ccc3nc(OC4CC4)sc3c2F)CC1 [Compound I-118]
0.041	CO[C@H]1C[C@@H](Oc2nc3ccc(OC[C@H]4C[C@H](OC[C@H](C)NC(C)=O)C4)nc3s2)C1 [Compound I-281]
0.012	CC(=O)N[C@@H](C)CO[C@H]1C[C@H](COc2ccc3nc(OCC(C)C)sc3n2)C1 [Compound I-196]
0.074	CC(=O)N[C@@H](C)CO[C@H]1C[C@H](COc2ncnc(OCc3nccs3)c2Cl)C1 [Compound I-409]
0.032	CC(=O)N[C@@H](C)CO[C@H]1CC[C@H](Oc2ncc3nc(O[C@@H]4CCOC4)sc3c2F)CC1 [Compound I-277]

IC50 [µM]	SMILES
0.015	CC(=O)N[C@@H](C)CO[C@H]1CC[C@H](Oc2nc3c(F)c(C)c(OCC(F)F)c(F)c3n2C)CC1 [Compound I-717]
0.061	COc1cnc(-c2cnc(O[C@H]3CC[C@H](OC[C@H](C)NC(C)=O)CC3)c(F)c2)nc1 [Compound I-528]
0.809	CC(=O)N[C@@H](C)CO[C@H]1C[C@](F)(COc2ccc3nc(C(C)(C)O)sc3c2F)C1 [Compound I-160]
0.028	CC(=O)N[C@@H](C)CO[C@H]1CC[C@H](Oc2nc3cnc(OCc4ccccc4)c(Cl)c3n2C)CC1 [Compound I-620]
0.067	CC(=O)N[C@@H](C)CO[C@H]1C[C@H](COc2nccc(-c3ccc(C(F)(F)F)cc3)c2Cl)C1 [Compound I-320]
0.013	CC(=O)N[C@@H](C)CO[C@H]1CC[C@H](Oc2nc3ccc(OCc4ccccc4)c(F)c3n2C)CC1 [Compound I-600]
0.003	CCOc1nc2ccc(OC[C@H]3C[C@H](OC[C@H](C)NC(C)=O)C3)nc2s1 [Compound I-157]
0.08	CC(=O)N[C@@H](C)CO[C@H]1C[C@H](COc2c(Cl)cc3nc(C(C)C)sc3c2Cl)C1 [Compound I-141]
0.108	CC(=O)N[C@@H](C)CO[C@H]1C[C@H](COc2ncnc(NCc3cccc(C(F)(F)F)c3)c2Cl)C1 [Compound I-342]
0.975	CC(=O)N[C@@H](C)CO[C@H]1CC[C@H](Oc2ncc(-c3ncc(F)cn3)cc2OCc2ccccc2)CC1 [Compound I-537]
0.91	CC(=O)N[C@@H](CC#N)CO[C@H]1CC[C@H](Oc2nc3cnc(OCC(F)F)c(Cl)c3n2C)CC1 [Compound I-730]
0.028	CCOc1nc2cc(Cl)c(O[C@H]3CC[C@H](OC[C@H](C)NC(C)=O)CC3)nc2n1C [Compound I-510]
0.007	CCOc1c(Cl)cc2nc(O[C@H]3CC[C@H](OC[C@H](C)NC(C)=O)CC3)n(C)c2c1Cl [Compound I-603]
0.007	CC(=O)N[C@@H](C)CO[C@H]1C[C@H](COc2nccc(OCc3ccccc3)c2Cl)C1 [Compound I-395]
0.068	CCCc1ccc2nc(O[C@H]3CC[C@H](OC[C@H](C)NC(C)=O)CC3)n(C)c2c1 [Compound I-573]
0.234	CC(=O)N[C@@H](C)CO[C@H]1CC[C@H](Oc2ccc3nc(N4CC(C)(O)C4)sc3c2F)CC1 [Compound I-187]
0.037	CC(=O)N[C@@H](C)CO[C@H]1CC[C@H](Oc2ccc3nc(Cl)sc3c2F)CC1 [Compound I-124]
0.075	CC(=O)N[C@@H](C)CO[C@H]1C[C@H](COc2ccc3nc(OCC(F)F)sc3c2F)C1 [Compound I-151]
0.167	COc1cnc(-c2ccnc(OC[C@H]3C[C@H](OC[C@H](C)NC(C)=O)C3)c2Cl)nc1 [Compound I-321]
0.26	CC(=O)N[C@@H](C)CO[C@H]1CC[C@H](Oc2ccc3nc(C(C)C)n(C)c3n2)CC1 [Compound I-513]

IC50 [µM]	SMILES
0.363	CCOc1nc2ccc(OC[C@H]3C[C@H](OC[C@H](C)NC(C)=O)C3)c(F)c2n1C [Compound I-487]
0.061	CC(=O)N[C@@H](C)CO[C@H]1C[C@H](COc2ccc3nc(OCC4(C#N)CC4)sc3n2)C1 [Compound I-192]
0.931	CC(=O)N[C@@H](C)CO[C@H]1C[C@](F)(COc2cc3sc(C(C)C)nc3cn2)C1 [Compound I-174]
0.041	CC(=O)N[C@@H](C)CO[C@H]1CC[C@H](Oc2ccc3nc(N4CCC(F)(F)CC4)sc3c2F)CC1 [Compound I-188]
0.003	CCOc1nc2ccc(O[C@H]3CC[C@H](OC[C@H](C)NC(C)=O)CC3)nc2s1 [Compound I-178]
0.027	CC(=O)N[C@@H](C)CO[C@H]1C[C@H](COc2ccc3nc(N4CCC(F)(F)C4)sc3n2)C1 [Compound I-228]
0.021	CC(=O)N[C@@H](C)CO[C@H]1CC[C@H](Oc2ccc3nc(OCC(C)(F)F)n(C)c3n2)CC1 [Compound I-500]
0.165	CC(=O)N[C@@H](C)CO[C@H]1C[C@H](COc2ccc3nc(OCC(C)(C)O)sc3n2)C1 [Compound I-300]
0.036	CC(=O)N[C@@H](C)CO[C@H]1C[C@H](COc2ccc3nc(N4CCC(F)(F)CC4)sc3n2)C1 [Compound I-227]
0.044	CC(=O)N[C@@H](C)CO[C@H]1CC[C@H](Oc2nc3c(F)c(C#N)c(OCC(F)F)c(F)c3n2C)CC1 [Compound I-747]
0.087	CC(=O)N[C@@H](C)CO[C@H]1C[C@](F)(COc2ccc3nc(C(C)(F)F)sc3c2F)C1 [Compound I-136]
0.113	CC(=O)N[C@@H](C)CO[C@H]1C[C@H](COc2nccc(OC3CCC3)c2Cl)C1 [Compound I-367]
0.019	CC(=O)N[C@@H](C)CO[C@H]1C[C@H](COc2nccc(OCC3CC3C)c2Cl)C1 (stereo partly shown) [Compound I-369]
0.113	CC(=O)N[C@@H](C)CO[C@H]1C[C@H](COc2ccc3nc(N4CCOCC4)sc3n2)C1 [Compound I-229]
0.014	CC(=O)N[C@@H](C)CO[C@H]1C[C@H](COc2nc3sc(OCC(F)(F)F)nc3cc2F)C1 [Compound I-181]
0.28	CC(=O)N[C@@H](C)CO[C@H]1C[C@H](COc2nccc(OCC(F)(F)F)c2Cl)C1 [Compound I-326]
0.011	C[C@@H](CO[C@H]1CC[C@H](Oc2nc3c(F)cc(OC4CC4)c(F)c3n2C)CC1)NS(C)(=O)=O [Compound I-671]
0.027	CCOc1nc2cc(Cl)c(OC[C@H]3C[C@H](OC[C@H](C)NC(C)=O)C3)cc2s1 [Compound I-110]
0.62	CC(=O)N[C@@H](C)CO[C@H]1CC[C@H](Oc2ncc3cc(OCC(F)F)ccc3n2)CC1 [Compound I-554]

SMILES	IC50 [µM]
CC(=O)N[C@@H](C)CO[C@H]1C[C@H](COc2nccc(N3C4CCC3CC4)c2Cl)C1 [Compound I-332]	0.056
